Experiments:
Format in all cases: cell-based
[1] = test system: Human dermal papilla cells; assay: Dermal papilla cell growth promoting activity (WST-1, spheroid culture), Test Example 5; conditions: for activity at 1 µM / activity at 4 µM / activity at 16 µM: Homo sapiens, Human dermal papilla cell, 72 hours, average of 3 wells, read-out: ΔO.D. 450 nm/620 nm (% of control); for growth promoting activity on dermal papilla cells: at 1 μM; for growth of dermal papilla cells: no concentration stated
Method: (§1) Human dermal papilla cells, which were purchased from Toyobo, were cultured in MEM (Invitrogen) containing 12% FBS.
The dermal papilla cells in passage 5 were sowed in a 96-well plate for spheroid culture to give a density of 1.5×10^4 cells/well and cultured overnight. Then, the medium was replaced by a medium to which no compound was added or a medium containing the compound and the culture was continued for additional 72 hours. After the completion of the culture, cells were counted by using a Cell Counting Kit (Wako Pure Chemicals). Five hours before the completion of the culture, WST-1 reagent at 1/10 amount per medium was added to each medium and then the optical density (O.D. 450 nm/620 nm) of the medium was measured at the completion of the culture. A positive correlation was observed between the cell number and optical density within the range of 0.25 to 4×10^4 cells/well.
In this table, each numerical value means an average of 6 wells (control group) or 3 wells (test groups). To compare the control group to the test groups, Student's t-test was employed: • *:P<0.05, **:P<0.01, ***:P<0.001.

[2] = test system: GAPDH mRNA; assay: GAPDH mRNA amount (QuantiGene bDNA method), Test Example 4; conditions: Human dermal papilla cell; human dermal papilla cells, 24 hours, concentration at which the mRNA amount is halved, average of 2 wells
Method: as §1
(§2) The dermal papilla cells in passage 5 were sowed in a 96-well plate to give a density of 1×10^4 cells/well and cultured overnight. Then, the medium was replaced by a medium to which no compound was added or a medium containing the compounds and the culture was continued for additional 24 hours. After the completion of the culture, WNT-5A or GAPDH mRNA amount was measured by using QuantiGene High Volume Kit (Bayer Medical) by the branched DNA (bDNA) signal amplification method (Drug Metabolism and Disposition, 28(5), 608-616 (2000)). In accordance with the protocol attached to QuantiGene High Volume Kit, cells were lysed by using Lysis Mixture and the lysis solution was added to capture plate. Next, a set of probes specific to WNT-5A or GPDH was added and allowed to react at 53° C. for 20 hours. After washing the plate by using 0.1×SSC containing 0.03% lauryl sulfate, an amplification probe comprising bDNA was added and allowed to react at 46° C. for 1 hour. After washing the plate, a labeling probe labeled with alkaline phosphatase was added and allowed to react at 46° C. for 1 hour. After washing the plate, a substrate Lumi-Phos Plus was added and allowed to react at 46° C. for 30 minutes. Then, the luminescence was measured by using WALLAC 1420ARVOsx.
As GAPDH-specific probe set, use was made of bDNA probe set for human GAPDH (XenoTech LLC, B0960).
(§3) The amounts of WNT-5A and GAPDH mRNAs are expressed in relative values (%) to the control case of adding of no compound and the concentration of a compound at which the mRNA amount is halved (IC50) is calculated as an index of WNT-5A mRNA decreasing activity of the corresponding compound.

[3] = test system: WNT-5A mRNA; assay: Activity of decreasing WNT-5A mRNA amount (QuantiGene bDNA method), Test Example 4; conditions: human dermal papilla cells; for IC50: concentration at which the mRNA amount is halved, average of 2 wells
Method: as §1, §2
The WNT-5A-specific probe set was designed based on the sequence of the coding region of human WNT-5A mRNA. As capture extenders (CEs), 10 probes (SEQ ID NOs:12 to 21) were used; as label extenders (LEs), 31 probes (SEQ ID NOs:22 to 52) were employed; and as blockers, […] (SEQ ID NOs:53 to 60) were employed.
as §3

[4] = Homo sapiens, Human dermal papilla cell, 24 h

IC50 [2] [µM]	IC50 [3, 4] [µM]	IC50 ([3]; 24 hours) [µM]	Structure (SMILES)	activity at 1 µM [1] [%]	activity at 4 µM [1] [%]	activity at 16 µM [1] [%]	growth promoting activity on dermal papilla cells [1]	growth of dermal papilla cells [1]	IC50 ([3]; Human dermal papilla cell, 24 hours) [µM]	WNT-5A mRNA amount / expression in dermal papilla cells [3]
28.2			C[C@@H]1C[C@@H]2O[C@H]2/C=C\C=C\C(=O)Cc2c(Cl)c(O)cc(O)c2C(=O)O1 [Compound 1, Radicicol]	133 ± 11.6	184 ± 12.1	145 ± 13	significant growth promoting activity			
26.4			CC(=O)Oc1cc(OC(C)=O)c2c(c1Cl)CC(=O)/C=C/C=C\[C@@H]1O[C@H]1C[C@@H](C)OC2=O [Compound 2]	143 ± 10.1	167 ± 8.5	241 ± 25.3	significant growth promoting activity			
> 30	3.46		C[C@@H]1C[C@@H]2O[C@H]2CCCCC(=O)Cc2c(Cl)c(O)cc(O)c2C(=O)O1 [Compound 4]	97.4 ± 24.4	148 ± 4.9	180 ± 6.9				
> 30	3.47		C[C@@H]1C[C@@H]2O[C@H]2/C=C\C=C\[C@H](O)Cc2c(Cl)c(O)cc(O)c2C(=O)O1 [Compound 5]	110 ± 45	175 ± 29.2	236 ± 26.4				
6.58	< 1	0.63	C[C@@H]1C[C@H](OC=O)[C@@H](Cl)/C=C\C=C\C(=O)Cc2c(Cl)c(O)cc(O)c2C(=O)O1 [Compound 18]	116 ± 9	147 ± 11.3	211 ± 25.9	significant growth promoting activity			
4.29			C[C@@H]1C[C@@H]2O[C@H]2/C=C\C=C\C(=NO)Cc2c(Cl)c(O)cc(O)c2C(=O)O1 [Compound 35]	161 ± 3.5	182 ± 3.7	159 ± 18.3	significant growth promoting activity			
> 120	6.42		C[C@@H]1CC2OC2C/C=C\C[C@H](O)Cc2c(Cl)c(O)cc(O)c2C(=O)O1 (stereo partly shown) [Compound 38]	104 ± 2.6	89.6 ± 7.3	125 ± 5.1				
13.5			C[C@@H]1C[C@@H]2O[C@H]2/C=C\C=C\C(=O)Cc2c(Cl)c(OCC(=O)Sc3ccccc3)cc(OCC(=O)Sc3ccccc3)c2C(=O)O1 [Compound 52]	124.5 ± 1	143 ± 9.5	197 ± 5.4	significant growth promoting activity	promote the growth		effectively inhibit
45.5			C[C@@H]1C[C@@H]2O[C@H]2[C@H](Sc2ccccc2)/C=C/CC(=O)Cc2c(Cl)c(O)cc(O)c2C(=O)O1 [Compound 53]	127 ± 14.3	150 ± 12.8	184 ± 3.6	significant growth promoting activity	promote the growth		effectively inhibit
> 30	2.37		CC(=O)S[C@@H]1/C=C/CC(=O)Cc2c(Cl)c(O)cc(O)c2C(=O)O[C@H](C)C[C@@H]2O[C@H]21 [Compound 54]	80 ± 2.4	97.1 ± 5.6	135 ± 0.9				
> 30	0.74		CC(=O)S[C@@H]1/C=C\CC(=O)Cc2c(Cl)c(O)cc(O)c2C(=O)O[C@H](C)C[C@@H]2O[C@H]21 [Compound 55]	89 ± 1.8	127 ± 7.2	176 ± 9.8				
80	< 1	0.5	C[C@@H]1C[C@@H]2O[C@H]2/C=C\C=C\C(=O)Cc2c(Cl)c(OC(=O)c3cccnc3)cc(OC(=O)c3cccnc3)c2C(=O)O1 [Compound 58]	123 ± 1.8	150 ± 9.4	217 ± 14.5	significant growth promoting activity	promote the growth		effectively inhibit
109	8.28		CC1C/C=C/C(O)C/C=C/C(=O)Cc2c(Cl)c(O)cc(O)c2C(=O)O1 (stereo not shown) [Compound 65]	92.1 ± 6.7	87.6 ± 8.7	141 ± 5.3				
50.6	10.7		CC1C/C=C/C(O)C/C=C/C(=O)Cc2cc(O)cc(O)c2C(=O)O1 (stereo not shown) [Compound 68]							
> 120	9.37		CC1CC2OC2CC(O)CCC(=O)Cc2c(Cl)c(O)cc(O)c2C(=O)O1 (stereo not shown) [Compound 73]	91.7 ± 5.7	81.2 ± 7.8	206 ± 9.2				
55.9	8.56		C[C@@H]1C[C@@H]2O[C@H]2/C=C\C=C\C(=O)Cc2c(Cl)c(OC3OC(CO)C(O)C3O)cc(O)c2C(=O)O1 (stereo partly shown) [Compound 76]	80 ± 5.6	77.1 ± 7	121 ± 6.3				
> 120	8.13		CC1CC2OC2CC2=CC=C(Cc3c(Cl)c(O)cc(O)c3C(=O)O1)O2 (stereo not shown) [Compound 77]	81.6 ± 4.4	86.3 ± 5	181 ± 21.7		promote the growth		effectively inhibit
38.2	0.9		COc1cc(O)c2c(c1)/C=C/CC(O)C(O)C(=O)/C=C\CC(C)OC2=O (stereo not shown) [Compound 79]	87.5 ± 9.9	98.6 ± 3.6	120 ± 4.1		excellent effect of promoting the growth		

Structure (SMILES)	IC50 [2] [µM]	IC50 [3, 4] [µM]	IC50 ([3]; 24 hours) [µM]	activity at 1 µM [1] [%]	activity at 4 µM [1] [%]	activity at 16 µM [1] [%]	growth promoting activity on dermal papilla cells [1]	growth of dermal papilla cells [1]	IC50 ([3]; Human dermal papilla cell, 24 hours) [µM]	WNT-5A mRNA amount / expression in dermal papilla cells [3]
O=C1c2no[n+]([O-])c2CCC1NO (stereo not shown) [Compound 24]	21.1			108 ± 6.9	104 ± 10.5	120 ± 3.7		excellent effect of promoting the growth	4.74	

— patent publication US20050182129A1, “Hair growth tonic” (priority 2002, published 2005)
